Read-outs that look alike come from different tables or passages of the source.
Legend:
C57BL/6J mice = assay: Mouse head twitch; assay type: in vivo; settings: mouse; for duration of HT expression: at 10-30 mg/kg; for head twitch response: doses of up to 30 mg/kg
Method: (§1) The effect of different doses of representative compounds of Formula I were evaluated on head-twitch response (HTR) and other behavioural responses indicative of serotonin syndrome as behavior-based models of psychedelic activity.
Male, C57BL/6J mice (body weight range 20-30 g) were dosed with the appropriate dose of test article, and following a 1-minute pre-treatment time, placed in individual observation chambers. Animals were visually assessed for the incidence head twitches continuously over a 1 hr period. Head twitches were defined as a rapid jerk of the head which was not elicited by an external tactile stimulus (Come and Pickering, Psychopharmacologia, 1967, 11(1): 65-78). Each head twitch was individually counted by a trained observer, and the data expressed as the mean+SEM of 6-10 mice per group. Mice were used in a single experiment only.

Sprague-Dawley rats = assay: Drug discrimination in the rat (5-MeO-DMT cue); assay type: in vivo; settings: for dose required to show generalization to the 5-MeO-DMT cue: oral administration; for ED50: Rattus norvegicus, read-out: ED50, generalization to the 5-MeO-DMT cue
Method: Male Sprague-Dawley rats were initially food restricted by presentation of 18-20 g food at day end (single housing). After 7 days acclimatisation to the food restriction procedure, they were trained daily to lever press for food (45 mg Bioserve pellet) in standard 2-lever operant conditioning chambers controlled by Med-PC software over a period of 1 week (Med. Associates Ins., St. Albans, VT). The rats were trained to lever press for food to an FR10 value (i.e 10 lever presses for a single food reward). Once stable food responding was acquired to both response levers, discrimination training began. […] Training sessions lasted 30-min or until the delivery of 50 pellets and continued until the animals attained appropriate stimulus control (defined as six consecutive sessions where animals made no more than 16 lever presses before the delivery of the first reward, and at least 95% total responses on the appropriate lever). The rats continued to receive daily food ration in their home cage at day end.
Once trained, tests of substitution were conducted. […] Test sessions continued until 50 pellets had been obtained or 30 min had elapsed. During these sessions response rate was also measured.

mice [1] = assay: Mouse locomotor activity and rearing assay; settings: 1-30 mg/kg, compared with 5-MeO-DMT
mice [2] = assay: Mouse 5-HT syndrome assay; assay type: in vivo; settings: for signs of 5-HT syndrome: doses of up to 30 mg/kg
Method: as §1

human 5-HT2A receptor = human 5-HT2A receptor (Homo sapiens (Human), UniProt P28223); assay: Human 5-HT2A radioligand binding assay ([3H]-ketanserin)
[3] = Liver microsomes stability, rat; settings: for Remaining Percentage (%): Rat
Method: (§2) The objective of this study was to estimate in vitro metabolic stability of representative compounds of the application in pooled human and male mouse liver microsomes. The concentrations of parent compounds in reaction systems were evaluated by LC-MS/MS for estimating the stability in pooled human and male mouse liver microsomes. The in vitro intrinsic clearances of test compounds were determined as well.
(§3) A master solution in the “Incubation Plate” containing phosphate buffer, ultra-pure H2O, MgCl2 solution and liver microsomes was made according to Table 3. The mixture was pre-warmed at 37° C. water bath for 5 minutes.
(§4) 40 μL of 10 mM NADPH solution was added to each well. The final concentration of NADPH was 1 mM. The negative control samples were prepared by replacing NADPH with 40 μL of ultra-pure H2O. Samples were prepared in duplicate. Negative controls were prepared in singlet.
(§5) The reaction was started with the addition of 4 μL of 200 μM test compounds or control compounds to each master solution to get the final concentration of 2 μM. This study was performed in duplicate.
(§6) Aliquots of 50 μL were taken from the reaction solution at 0, 15, 30, 45 and 60 minutes. The reaction solutions were stopped by the addition of 4 volumes of cold methanol with IS (100 nM alprazolam, 200 nM imipramine, 200 nM labetalol and 2 μM ketoprofen). Samples were centrifuged at 3,220 g for 40 minutes. Aliquot of 90 μL of the supernatant was mixed with 90 μL of ultra-pure H2O and then was used for LC-MS/MS analysis.
(§7) LC/MS analysis was performed for all samples from this study using a Shimadzu liquid chromatograph separation system equipped with degasser DGU-20A5R; solvent delivery unit LC-30AD; system controller SIL-30AC; column oven CTO-30A; CTC Analytics HTC PAL System. Mass spectrometric analysis was performed using an Triple Quad™ 5500 instrument.
(§8) All calculations were carried out using Microsoft Excel. Peak area ratios of test compound to internal standard (listed in the below table) were determined from extracted ion chromatograms.
(§9) All calculations were carried out using Microsoft Excel. Peak areas were determined from extracted ion chromatograms. The slope value, k, was determined by linear regression of the natural logarithm of the remaining percentage of the parent drug vs. incubation time curve.
(§10) The in vitro half-life (in vitro t1/2) was determined from the slope value:
(§11) Conversion of the in vitro t1/2(min) into the in vitro intrinsic clearance (in vitro CLint, in μL/min/mg proteins) was done using the following equation (mean of duplicate determinations): […]

[4] = Liver microsomes stability, human; settings: for Remaining Percentage (%): Human
Method: as §2, §3, §4, §5, §6, §7, §8, §9, §10, §11

[5] = Liver microsomes stability, dog; settings: for Remaining Percentage (%): Dog
[6] = Liver microsomes stability, mouse; settings: for Remaining Percentage (%): Mouse
Method: as §2, §3, §4, §5, §6, §7, §8, §9, §10, §11

## COc1ccc2[nH]cc(CCN(C)C)c2c1 [Compound 5-MeO-DMT, 5-methoxy-dimethoxytryptamine, reference compound]
C57BL/6J mice; SC
  ED50, head twitch response: 8 mg/kg
C57BL/6J mice
  duration of HT expression: 0 to 20 min
Sprague-Dawley rats; SC administration, FIG. 8
  ED50, generalization to the 5-MeO-DMT cue: ~0.2 mg/kg
Sprague-Dawley rats; FIG. 8
  dose required to show generalization to the 5-MeO-DMT cue: 10 mg/kg

## CCCCC/C=C\C/C=C\CCCCCCCC(=O)n1cc(CCN(C)C)c2cc(OC)ccc21 [Compound I-1, (9Z,12Z)-1-(3-(2-(Dimethylamino)ethyl)-5-methoxy-1H-indol-1-yl)octadeca-9,12-dien-1-one]
Mice [1]
  motor activity or rearing: did not reduce motor activity or rearing to the same extent as 5-MeO-DMT
C57BL/6J mice; 1-60 mg/kg SC
  head twitch response expression: robust head twitch response
C57BL/6J mice; SC, read-out: ED50, head twitch response
  ED50: 2.8 mg/kg
C57BL/6J mice
  duration of HT expression: 0 to 30 min
Mice [2]; up to 60 mg/kg SC
  signs of 5-HT syndrome (whole body twitches, FPT, Straub tail): did not induce signs of 5-HT syndrome
Human 5-HT2A receptor
  IC50: < 2000 nM

## [2H]C([2H])(c1cn(C(=O)CCCCCCC/C=C\C/C=C\CCCCC)c2ccccc12)[C@H]1CCCN1C([2H])([2H])[2H] [Compound I-2, (9Z,12Z)-1-(3-(((R)-1-(Methyl-d3)pyrrolidin-2-yl)methyl-d2)-1H-indol-1-yl)octadeca-9,12-dien-1-one]
[3]; Rat liver microsomes
  Predicted hepatic CL: 27.34 mL/min/kg
[3]; With NADPH, 0 min
  Remaining Percentage (%): 100.00%
[3]; With NADPH, 30 min
  Remaining Percentage (%): 56.08%
[3]; With NADPH, 60 min
  Remaining Percentage (%): 40.37%
[3]; Without NADPH, 0 min
  Remaining Percentage (%): 100.00%
[3]; Without NADPH, 30 min
  Remaining Percentage (%): 94.64%
[3]; Without NADPH, 60 min
  Remaining Percentage (%): 84.47%
[3]; rat, microsomes
  CLint scaled at 2 μM: 54.2 mL/min/kg
  half-life at 2 μM: 45.8 min
  microsomal CLint at 2 μM: 30.2 µL/min/mg
C57BL/6J mice
  head twitch response: robust head twitch response
Sprague-Dawley rats
  ED50: ~30 mg/kg
Sprague-Dawley rats; rats trained to 1 mg/kg 5-MeO-DMT vs saline, FIG. 7
  level of partial generalization to the 5-MeO-DMT cue: ~60%
Mice [2]
  signs of 5-HT syndrome: no signs of 5-HT syndrome
[4]; Human liver microsomes
  Predicted hepatic CL: 5.79 mL/min/kg
[4]; With NADPH, 0 min
  Remaining Percentage (%): 100.00%
[4]; With NADPH, 30 min
  Remaining Percentage (%): 87.61%
[4]; With NADPH, 60 min
  Remaining Percentage (%): 82.52%
[4]; Without NADPH, 0 min
  Remaining Percentage (%): 100.00%
[4]; Without NADPH, 30 min
  Remaining Percentage (%): 114.91%
[4]; Without NADPH, 60 min
  Remaining Percentage (%): 83.75%
[4]; human, microsomes
  CLint scaled at 2 μM: 8.03 mL/min/kg
  half-life at 2 μM: 216 min
  microsomal CLint at 2 μM: 6.4 µL/min/mg
[5]; Dog liver microsomes
  Predicted hepatic CL: 22.14 mL/min/kg
[5]; With NADPH, 0 min
  Remaining Percentage (%): 100.00%
[5]; With NADPH, 30 min
  Remaining Percentage (%): 66.91%
[5]; With NADPH, 60 min
  Remaining Percentage (%): 39.08%
[5]; Without NADPH, 0 min
  Remaining Percentage (%): 100.00%
[5]; Without NADPH, 30 min
  Remaining Percentage (%): 94.42%
[5]; Without NADPH, 60 min
  Remaining Percentage (%): 91.63%
[5]; dog, microsomes
  CLint scaled at 2 μM: 78.1 mL/min/kg
  half-life at 2 μM: 44.3 min
  microsomal CLint at 2 μM: 31.3 µL/min/mg
Human 5-HT2A receptor
  IC50: < 2000 nM
[6]; Mouse liver microsomes
  Predicted hepatic CL: 50.97 mL/min/kg
[6]; With NADPH, 0 min
  Remaining Percentage (%): 100.00%
[6]; With NADPH, 30 min
  Remaining Percentage (%): 71.53%
[6]; With NADPH, 60 min
  Remaining Percentage (%): 44.66%
[6]; Without NADPH, 0 min
  Remaining Percentage (%): 100.00%
[6]; Without NADPH, 30 min
  Remaining Percentage (%): 95.81%
[6]; Without NADPH, 60 min
  Remaining Percentage (%): 80.93%
[6]; male, mouse, microsomes
  CLint scaled at 2 μM: 118 mL/min/kg
  half-life at 2 μM: 51.6 min
  microsomal CLint at 2 μM: 26.9 µL/min/mg

## [2H]C([2H])(c1cn(C(=O)CCCCCCC/C=C\C/C=C\CCCCC)c2ccc(OC)cc12)[C@H]1CCCN1C([2H])([2H])[2H] [Compound I-3, (9Z,12Z)-1-(5-Methoxy-3-(((R)-1-(methyl-d3)pyrrolidin-2-yl)methyl-d2)-1H-indol-1-yl)octadeca-9,12-dien-1-one]
C57BL/6J mice
  head twitch response: robust head twitch response
Sprague-Dawley rats; SC administration, FIG. 8
  ED50: ~6 mg/kg
Sprague-Dawley rats; FIG. 8
  dose required to show generalization to the 5-MeO-DMT cue: 100 mg/kg
Mice [2]
  signs of 5-HT syndrome: no signs of 5-HT syndrome
Human 5-HT2A receptor
  IC50: < 2000 nM
